Data as given in patent US20260265244A1, “HETEROCYCLIC COMPOUNDS AS STING ANTAGONISTS” (Boehringer Ingelheim International GmbH, priority 2022, published 2026).

Assays:
human STING WT (R232) = biological target: T1, human STING WT (R232) (Homo sapiens, UniProt Q86WV6, H232R); assay: Human STING HTRF binding assay (competitive, Cisbio 64BDSTGPEG)
T1 construct: purchased Cisbio 64BDSTGPEG
Outline: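 Competitive HTRF: 6His-tagged human STING WT R232 binding domain (residues 138-379) with anti-6His Cryptate antibody and d2-labeled STING ligand, 180 min at room temperature, 1% DMSO, 8 concentrations from 10 μM or 1 μM top in ~1:5 steps. HTRF ratios were calibrated to a cGAMP standard curve and IC50 obtained by 4-parameter logistic fit.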

[1] = tested on: STING inhibition in human whole blood (IFNα2α production); assay: Human whole blood assay (HWBA): cGAMP-stimulated IFNα2α production; assay type: cell-based; conditions: Homo sapiens
Outline: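 Na-citrate human whole blood from ≥3 healthy donors, preincubated 60 min at room temperature with compound (8 concentrations, top 10 μM, ~1:5 steps, 0.1% DMSO), then stimulated with cGAMP and incubated 22 h at 37 °C. Plasma IFNα2α measured by MSD immunoassay; % control versus stimulated/unstimulated wells, IC50 by 4-parameter logistic fit.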

T1 sequence (Q86WV6 138-379 H232R): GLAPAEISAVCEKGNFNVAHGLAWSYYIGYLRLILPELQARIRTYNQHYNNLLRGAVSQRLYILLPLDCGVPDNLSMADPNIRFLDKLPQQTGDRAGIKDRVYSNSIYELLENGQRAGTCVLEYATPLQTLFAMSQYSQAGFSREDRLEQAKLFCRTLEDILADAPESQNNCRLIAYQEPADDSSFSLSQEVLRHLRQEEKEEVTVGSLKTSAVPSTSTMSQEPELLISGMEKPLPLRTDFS

SMILES | IC50 (human STING WT (R232)) [nM] | IC50 [1] [nM]
CCCn1cc2cc(-c3nc(-c4cccc5nn(CC(F)(F)c6ccccc6)cc45)c(C4CC4)n3C)c(C3CC3)nc2n1 [Example 48, 4-(5-cyclopropyl-2-{6-cyclopropyl-2-propyl-2H-pyrazolo[3,4-b]pyridin-5-yl}-1-methyl-1H-imidazol-4-yl)-2-(2,2-difluoro-2-phenylethyl)-2H-indazole] | 22.7 | 150
COCCn1cc2cc(-n3nc(-c4cccc5nn(C[C@H](O)c6ccccc6)cc45)c(C(C)C)c3C)c(C)nc2n1 [Example 16, (1R)-2-(4-{1-[2-(2-methoxyethyl)-6-methyl-2H-pyrazolo[3,4-b]pyridin-5-yl]-5-methyl-4-(propan-2-yl)-1H-pyrazol-3-yl}-2H-indazol-2-yl)-1-phenylethan-1-ol] | 6.6 | 79
Cc1nc2nn(CCCN3CCN(C)CC3)cc2cc1-n1nc(-c2cccc3nn(C[C@H](O)c4ccccc4)cc23)c(C(C)C)c1C [Example 7, (1R)-2-[4-(5-methyl-1-{6-methyl-2-[3-(4-methylpiperazin-1-yl)propyl]-2H-pyrazolo[3,4-b]pyridin-5-yl}-4-(propan-2-yl)-1H-pyrazol-3-yl)-2H-indazol-2-yl]-1-phenylethan-1-ol] | 24.6 | 61
CSc1nc2nn(C)cc2cc1-n1nc(-c2cccc3nn(C[C@H](O)c4ccccc4)cc23)c(C(C)C)c1C [Example 20, (1R)-2-(4-{5-methyl-1-[2-methyl-6-(methylsulfanyl)-2H-pyrazolo[3,4-b]pyridin-5-yl]-4-(propan-2-yl)-1H-pyrazol-3-yl}-2H-indazol-2-yl)-1-phenylethan-1-ol] | 17.4 | 84
Cc1c(C(C)C)c(-c2cccc3nn(C[C@H](O)c4ccccc4)cc23)nn1-c1cc2cn(C)nc2nc1OC(C)C [Example 23, (1R)-2-(4-{5-methyl-1-[2-methyl-6-(propan-2-yloxy)-2H-pyrazolo[3,4-b]pyridin-5-yl]-4-(propan-2-yl)-1H-pyrazol-3-yl}-2H-indazol-2-yl)-1-phenylethan-1-ol] | 18.8 | 89
Cc1c(C(C)C)c(-c2cccc3nn(C[C@H](O)c4ccccc4)cc23)nn1-c1cc2cn(C)nc2nc1C(C)O (stereo partly drawn) [Example 19, (1R)-2-(4-{1-[6-(1-hydroxyethyl)-2-methyl-2H-pyrazolo[3,4-b]pyridin-5-yl]-5-methyl-4-(propan-2-yl)-1H-pyrazol-3-yl}-2H-indazol-2-yl)-1-phenylethan-1-ol] | 16.1 | 82
CCO[C@@H](Cn1cc2c(-c3nn(-c4cc5cn(C)nc5nc4C)c(C)c3C(C)C)cccc2n1)c1ccccc1 [Example 30, 4-(1-{2,6-dimethyl-2H-pyrazolo[3,4-b]pyridin-5-yl}-5-methyl-4-(propan-2-yl)-1H-pyrazol-3-yl)-2-[(2R)-2-ethoxy-2-phenylethyl]-2H-indazole] | 18.2 | 110
Cc1nc2nn(CCCCN3CCN(C)CC3)cc2cc1-n1nc(-c2cccc3nn(C[C@H](O)c4ccccc4)cc23)c(C(C)C)c1C [Example 45, (1R)-2-[4-(5-methyl-1-{6-methyl-2-[4-(4-methylpiperazin-1-yl)butyl]-2H-pyrazolo[3,4-b]pyridin-5-yl}-4-(propan-2-yl)-1H-pyrazol-3-yl)-2H-indazol-2-yl]-1-phenylethan-1-ol] | 18.1 | 140
Cc1nc2nn(C)cc2cc1-n1nc(-c2cccc3nn(C[C@H](OCCO)c4ccccc4)cc23)c(C(C)C)c1C [Example 8, 2-[(1R)-2-[4-(1-{2,6-dimethyl-2H-pyrazolo[3,4-b]pyridin-5-yl}-5-methyl-4-(propan-2-yl)-1H-pyrazol-3-yl)-2H-indazol-2-yl]-1-phenylethoxy]ethan-1-ol] | 14.6 | 62
Cc1nc2nn(CCN(C)C)cc2cc1-n1nc(-c2cccc3nn(C[C@H](O)c4ccccc4)cc23)c(C(C)C)c1C [Example 39, (1R)-2-[4-(1-{2-[2-(dimethylamino)ethyl]-6-methyl-2H-pyrazolo[3,4-b]pyridin-5-yl}-5-methyl-4-(propan-2-yl)-1H-pyrazol-3-yl)-2H-indazol-2-yl]-1-phenylethan-1-ol] | 15.4 | 130
Cc1nc2nn(Cc3cnn(C)c3)cc2cc1-n1nc(-c2cccc3nn(C[C@H](O)c4ccccc4)cc23)c(C(C)C)c1C [Example 24, (1R)-2-[4-(5-methyl-1-{6-methyl-2-[(1-methyl-1H-pyrazol-4-yl)methyl]-2H-pyrazolo[3,4-b]pyridin-5-yl}-4-(propan-2-yl)-1H-pyrazol-3-yl)-2H-indazol-2-yl]-1-phenylethan-1-ol] | 4.9 | 92
CC(C)c1nc2nn(C)cc2cc1-c1nc(-c2cccc3nn(C[S@@+]([O-])c4ccccc4)cc23)c(C2CC2)n1C [Example 22, 2-{[(S)-benzenesulfinyl]methyl}-4-{5-cyclopropyl-1-methyl-2-[2-methyl-6-(propan-2-yl)-2H-pyrazolo[3,4-b]pyridin-5-yl]-1H-imidazol-4-yl}-2H-indazole] | 20 | 86
Cc1c(C(C)C)c(-c2cccc3nn(C[C@H](O)c4ccc(OCCN5CCOCC5)cc4)cc23)nn1-c1cc2cn(C)nc2nc1C1CC1 [Example 15, (1R)-2-[4-(1-{6-cyclopropyl-2-methyl-2H-pyrazolo[3,4-b]pyridin-5-yl}-5-methyl-4-(propan-2-yl)-1H-pyrazol-3-yl)-2H-indazol-2-yl]-1-{4-[2-(morpholin-4-yl)ethoxy]phenyl}ethan-1-ol] | 19.1 | 77
Cc1nc2nn(CCO)cc2cc1-n1nc(-c2cccc3nn(C[C@H](O)c4ccccc4)cc23)c(C(C)C)c1C [Example 37, (1R)-2-(4-{1-[2-(2-hydroxyethyl)-6-methyl-2H-pyrazolo[3,4-b]pyridin-5-yl]-5-methyl-4-(propan-2-yl)-1H-pyrazol-3-yl}-2H-indazol-2-yl)-1-phenylethan-1-ol] | 5.5 | 130

The next lines start with the values.

IC50 (human STING WT (R232)) [nM] | IC50 [1] [nM] | SMILES
62.8 | 1200 | Cc1c(C(C)C)c(-c2cccc3nn(C[C@H](O)c4ccccc4)cc23)nn1-c1cc2cn(C)nc2nc1C(C)(C)C [Example 113, (1R)-2-[4-(1-{6-tert-butyl-2-methyl-2H-pyrazolo[3,4-b]pyridin-5-yl}-5-methyl-4-(propan-2-yl)-1 H-pyrazol-3-yl)-2H-indazol-2-yl]-1-phenylethan-1-ol]
15.8 | 230 | COC(C)c1nc2nn(C)cc2cc1-n1nc(-c2cccc3nn(C[C@H](O)c4ccccc4)cc23)c(C(C)C)c1C (stereo partly drawn) [Example 58, (1R)-2-(4-{1-[6-(1-methoxyethyl)-2-methyl-2H-pyrazolo[3,4-b]pyridin-5-yl]-5-methyl-4-(propan-2-yl)-1H-pyrazol-3-yl}-2H-indazol-2-yl)-1-phenylethan-1-ol]
8 | 320 | Cc1nc2nn(C)cc2cc1-n1nc(-c2cccc3nn(C[C@H](OCCCCO)c4ccccc4)cc23)c(C(C)C)c1C [Example 66, 4-[(1R)-2-[4-(1-{2,6-dimethyl-2H-pyrazolo[3,4-b]pyridin-5-yl}-5-methyl-4-(propan-2-yl)-1H-pyrazol-3-yl)-2H-indazol-2-yl]-1-phenylethoxy]butan-1-ol]
16.3 | 160 | Cc1c(C(C)C)c(-c2cccc3nn(C[C@H](O)c4ccccc4)cc23)nn1-c1cc2cn(C)nc2[n+]([O-])c1C1CC1 [Example 50, 6-cyclopropyl-5-(3-{2-[(2R)-2-hydroxy-2-phenylethyl]-2H-indazol-4-yl}-5-methyl-4-(propan-2-yl)-1H-pyrazol-1-yl)-2-methyl-2H-pyrazolo[3,4-b]pyridin-7-ium-7-olate]
37.7 | 370 | Cc1nc2nn(CC(O)CN3CCN(C)CC3)cc2cc1-n1nc(-c2cccc3nn(C[C@H](O)c4ccccc4)cc23)c(C(C)C)c1C (stereo partly drawn) [Example 70, 1-[5-(3-{2-[(2R)-2-hydroxy-2-phenylethyl]-2H-indazol-4-yl}-5-methyl-4-(propan-2-yl)-1H-pyrazol-1-yl)-6-methyl-2H-pyrazolo[3,4-b]pyridin-2-yl]-3-(4-methylpiperazin-1-yl)propan-2-ol]
39.8 | 300 | Cc1nc2nn(C)cc2cc1-n1nc(-c2cccc3nn(C[C@H](OCC4CC4)c4ccccc4)cc23)c(C(C)C)c1C [Example 63, 2-[(2R)-2-(cyclopropylmethoxy)-2-phenylethyl]-4-(1-{2,6-dimethyl-2H-pyrazolo[3,4-b]pyridin-5-yl}-5-methyl-4-(propan-2-yl)-1H-pyrazol-3-yl)-2H-indazole]
31.7 | 170 | Cc1c(C(C)C)c(-c2cccc3nn(C[C@H](O)c4ccccc4)cc23)nn1-c1cc2cn(C)nc2nc1CN(C)C [Example 112]
23.9 | 240 | CCCc1nc2nn(C)cc2cc1-n1nc(-c2cccc3nn(C[C@H](O)c4ccccc4)cc23)c(C(C)C)c1C [Example 60, (1R)-2-[4-(5-methyl-1-{2-methyl-6-propyl-2H-pyrazolo[3,4-b]pyridin-5-yl}-4-(propan-2-yl)-1H-pyrazol-3-yl)-2H-indazol-2-yl]-1-phenylethan-1-ol]
19.9 | 180 | CO[C@@H](Cn1cc2c(-c3nn(-c4cc5cn(C)nc5nc4C)c(C)c3C(C)C)cccc2n1)c1ccccc1 [Example 52, 4-(1-{2,6-dimethyl-2H-pyrazolo[3,4-b]pyridin-5-yl}-5-methyl-4-(propan-2-yl)-1H-pyrazol-3-yl)-2-[(2R)-2-methoxy-2-phenylethyl]-2H-indazole]
